Here are results for 22 compounds from patent US6608086B2, “Dihydropyridines and new uses thereof” (Synaptic Pharmaceutical Corporation, priority 1993, dated 2003).

Structures can show the parent of a compound that is named as a salt.

One assay addresses T1, α2C receptor (Homo sapiens, UniProt P18825).
T1 construct: host or cells: LM(tk-) cells, line L-α2C
T1 sequence (P18825 1-462): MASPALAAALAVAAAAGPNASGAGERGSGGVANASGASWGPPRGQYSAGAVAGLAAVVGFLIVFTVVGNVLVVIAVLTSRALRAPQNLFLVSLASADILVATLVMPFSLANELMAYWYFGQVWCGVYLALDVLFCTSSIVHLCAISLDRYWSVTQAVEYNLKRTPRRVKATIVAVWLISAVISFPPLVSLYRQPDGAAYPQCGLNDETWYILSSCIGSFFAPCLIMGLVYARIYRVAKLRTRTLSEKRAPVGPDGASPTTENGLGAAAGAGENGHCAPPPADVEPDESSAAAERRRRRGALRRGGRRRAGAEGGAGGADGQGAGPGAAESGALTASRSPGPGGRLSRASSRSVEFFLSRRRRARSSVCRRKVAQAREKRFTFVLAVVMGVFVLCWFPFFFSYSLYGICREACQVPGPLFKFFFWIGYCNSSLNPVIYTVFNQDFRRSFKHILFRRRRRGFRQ
Description: Competition binding, [3H]rauwolscine, human α2C receptor. Conditions: PKi alpha-2 2c. From the text:
The protocols for these experiments are given below.
α2 Human Adrenergic Receptors:
To determine the potency of […], antagonists at the α2 receptors, LM(tk−) cell lines stably transfected with the genes encoding the α2A, α2B, and α2C receptors were used. The cell line expressing the α2A receptor is designated L-α2A, and was deposited on Nov. […] The cell line expressing the α2B receptor is designated L-NGC-α2B, and was deposited on Oct. […] The cell line expressing the α2C receptor is designated L-α2C, and was deposited on Nov. […] Cell lysates were prepared as described above (see Radioligand Binding Assays), and suspended in 25 mM glycylglycine buffer (pH 7.6 at room temperature). Equilibrium competition binding assay were performed using [3H]rauwolscine (0.5 nM), and nonspecific binding was determined by incubation with 10 μM phentolamine. The bound radioligand was separated by filtration through GF/B filters using a cell harvester.
In the case of `CCC1=C(C(=O)NC)C(c2ccc([N+](=O)[O-])cc2)C(C(=O)NCCCN2CCC(C(=O)OC)(c3ccccc3)CC2)=C(CC)N1` (stereo not shown) [Example 179, 2,6-Diethyl-1,4-dihydro-3-{N-[3-(4-methoxycarbonyl-4-phenyl-piperidin-1-yl)propyl]}carboxamido-5-(N-methyl)carboxamido-4-(4-nitrophenyl)pyridine], the Ki was 1450 nM.

The assay is the same for the next values; noted with them: [3H]rauwolscine, LM(tk-) cell line L-α2C; SEM and n in lines below.
For `CCC1=C(C(=O)NCCCCN2CCC(c3ccccc3)CC2)C(c2ccc([N+](=O)[O-])cc2)C(C(N)=O)=C(C)N1.Cl.O` (stereo not shown) [Example 77, 5-Carboxamido-2-ethyl-1,4-dihydro-6-methyl-4-(4-nitro)phenyl-3-(N-(4-(4-phenylpiperidin-1-yl)butyl))carboxamidopyridine hydrochloride hydrate], the “pKi alpha-2 2c” value stood at 7.42.

As for `CC1=C(C(N)=O)C(c2ccc([N+](=O)[O-])cc2)C(C(=O)NC2CCN(Cc3ccccc3)CC2)=C(c2ccoc2)N1.Cl.O` (stereo not shown) [Example 66], the “pKi alpha-2 2c” value is 6.24.

Turning to `COC(=O)C1=C(C)NC(c2ccccc2)=C(C(=O)NCCCN2CCC(c3ccccc3)CC2)C1c1ccc([N+](=O)[O-])cc1.Cl` (stereo not shown) [Example 79, 1,4-Dihydro-5-methoxycarbonyl-6-methyl-4-(4-nitro)phenyl-2-phenyl-3-(N-(3-(4-phenylpiperidin-1-yl)propyl)) carboxamidopyridine hydrochloride], the “pKi alpha-2 2c” value is on record as 7.21.

On to `COc1cc2c(c(OC)c1)CCN(CCCNC(=O)C1=C(c3ccoc3)NC(C)=C(C(N)=O)C1c1ccc([N+](=O)[O-])cc1)C2.Cl.O` (stereo not shown) [Example 67], for which the “pKi alpha-2 2c” value came to 7.00.

Still in this assay, the particulars now being: [3H]rauwolscine, LM(tk-) cell line L-α2C; SEM and n in lines below; read-out: pKi alpha-2 2c (converted).
For `COC(=O)C1=C(C)NC(C)=C(C(=O)NCCCN2CCC(c3ccccc3)CC2)C1c1ccc([N+](=O)[O-])cc1` (single isomer, unassigned; (-)) [(−)-45, 1,4-Dihydro-3-methoxycarbonyl-2,6-dimethyl-4-(4-nitrophenyl)-5-{N-[3-(4-phenylpiperidin-1-yl)propyl]}carboxamidopyridine hydrochloride hemihydrate], the Ki was 13.8 nM.

With `COC(=O)C1=C(C)NC(C)=C(C(=O)NCCCN2CCCCC2)C1c1ccc([N+](=O)[O-])cc1` (stereo not shown) [Example 51, 1,4-Dihydro-3-methoxycarbonyl-2,6-dimethyl-4-(4-nitrophenyl)-5-{N-[3-(piperidin-1-yl)propyl]}carboxamidopyridine hydrochloride etherate], the Ki is 251 nM.

With `COC(=O)C1=C(C)NC(C)=C(C(=O)NCCCN2CCC(c3ccccc3)CC2)C1c1ccc([N+](=O)[O-])cc1` (single isomer, unassigned; (+)) [(+)-45, 1,4-Dihydro-3-methoxycarbonyl-2,6-dimethyl-4-(4-nitrophenyl)-5-{N-[3-(4-phenylpiperidin-1-yl)propyl]}carboxamidopyridine hydrochloride hemihydrate], the Ki was 22.4 nM.

`COC(=O)C1=C(C)NC(C)=C(C(=O)OCCCN2CCCCC2)C1c1ccc([N+](=O)[O-])cc1` (stereo not shown) [Example 50, 1,4-Dihydro-5-methoxycarbonyl-2,6-dimethyl-4-(4-nitrophenyl)-3-[3-(piperidin-1-yl)propoxy]carbonylpyridine hydrochloride etherate]: the Ki was 661 nM.

Take `COC(=O)C1=C(C)NC(c2ccoc2)=C(C(=O)NCCCN2CCC(c3ccccc3)CC2)C1c1ccc([N+](=O)[O-])cc1` (stereo not shown) [Example 65, 2-(Furan-3-yl)-1,4-dihydro-5-methoxycarbonyl-6-methyl-4-(4-nitrophenyl)-5-{N-[3-(4-phenylpiperidin-1-yl)propyl]}carboxamidopyridine hydrochloride hydrate]: the Ki was 83.2 nM.

For `COC(=O)C1=C(C)NC(C)=C(C(=O)NCCCN2CCc3cc(OC)c(OC)cc3C2)C1c1ccc([N+](=O)[O-])cc1` (stereo not shown) [Example 57, 1,4-Dihydro-3-methoxycarbonyl-5-{N-[3-(1,2,3,4-tetrahydro-6,7-dimethoxyisoquinolin-2-yl)propyl]}carboxamido-2,6-dimethyl-4-(4-nitrophenyl)pyridine hydrochloride hydrate], the Ki is 158 nM.

`COC(=O)C1=C(C)NC(C)=C(C(=O)OCCCN2CCC(c3ccccc3)CC2)C1c1ccc([N+](=O)[O-])cc1` (stereo not shown) [Example 48, 1,4-Dihydro-5-methazycarbonyl-2,6-dimethyl-4-(4-nitrophenyl)-3-[3-(4-phenylpiperidin-1-yl)propoxy]}carbonylpyridine hydrochloride hydrate]: the Ki is 417 nM.

As to `CCC1=C(C(=O)NC2CCN(Cc3ccccc3)CC2)C(c2ccc([N+](=O)[O-])cc2)C(C(=O)OC)=C(C)N1` (stereo not shown) [Example 75, 2-Ethyl-1,4-dihydro-5-methoxycarbonyl-6-methyl-4-(4-nitro)phenyl-3-(N-(N-phenylmethyl)piperidin-4-yl)carboxamidopyridine hydrochloride], the Ki is 1230 nM.

As to `COC(=O)C1=C(C)NC(C)=C(C(=O)NCCCCN2CCC(c3ccccc3)CC2)C1c1ccc([N+](=O)[O-])cc1` (stereo not shown) [Example 3, 1,4-Dihydro-3-methoxycarbonyl-2,6-dimethyl-4-(4-nitrophenyl)-5-{N-[4-(4-phenylpiperidin-1-yl)butyl]}carbozamidopyridine hydrochloride hydrate], the Ki is 51.3 nM.

Still in this assay, the particulars now being: [3H]rauwolscine, human receptor, LM(tk-) cell lysates; mean.
`CC1=C(C(N)=O)C(c2ccc([N+](=O)[O-])cc2)C(C(=O)NCCCN2CCC(C(=O)OCCC#N)(c3ccccc3)CC2)=CN1C` (stereo not shown) [Example 209, 5-Carboxamido-3-{N-[3-(4-(2-cyanoethoxycarbonyl)-4-phenylpiperidin-1-yl)propyl]}carboxamido-1,4-dihydro-1,6-dimethyl-4-(4-nitrophenyl) pyridine]: the “PKi alpha-2 2c” value is recorded as 5.70.

The same assay, now with this note: [3H]rauwolscine, human receptor, LM(tk-) cell lysates; mean; read-out: PKi alpha-2 2c (converted).
Regarding `CCC1=C(C(N)=O)C(c2ccc([N+](=O)[O-])cc2)C(C(=O)NCCCN2CCC(C(=O)OC)(c3ccccc3)CC2)=C(COCCN)N1` (stereo not shown) [Example 234, 2-((2-Aminoethyl)oxy)methyl-5-carboxamido-6-ethyl-1,4-dihydro-3-(N-(3-(4-methoxycarbonyl-4-phenylpiperidin-1-yl)propyl)) carboxamido-4-(4-nitro)phenylpyridine], the Ki is 832 nM.

Take `COC(=O)C1(c2ccccc2)CCN(CCCNC(=O)C2=C(COCCN=[N+]=[N-])NC(C)=C(C(N)=O)C2c2ccc([N+](=O)[O-])cc2)CC1` (stereo not shown) [Example 183, 2-[(2-Azidoethoxy)methyl]-5-carboxamido-1,4-dihydro-3-{N-[3-(4-methoxycarbonyl-4-phenylpiperidin-1-yl)propyl]}carboxamido-6-methyl-4-(4-nitrophenyl)pyridine]: the Ki is 437 nM.

The assay is the same for the next values; noted with them: [3H]rauwolscine, human α2C receptor, LM(tk−) cells.
As for `CCC1=C(C(=O)NC)C(c2ccc([N+](=O)[O-])cc2)C(C(=O)NCCCN2CCC(C#N)(c3ccccc3)CC2)=C(CC)N1` (stereo not shown) [Example 126, 3-{N-[3-(4-Cyano-4-phenylpiperidin-1-yl)propyl]}carboxamido-1,4-dihydro-2,6-diethyl-5-(1-methyl)carboxamido-4-(4-nitrophenyl)pyridine], the “pKi alpha-2 2c” value is recorded as 5.36.

For the compound `CCOC(=O)C1=C(CNCCCN2CCC(c3ccccc3)(c3ccccc3)CC2)NC(C)=C(C(=O)OC)C1c1ccc([N+](=O)[O-])cc1.Cl.O` (stereo not shown) [Example 90, 3-Ethoxycarbonyl-1,4-dihydro-5-methoxycarbonyl-6-methyl-4-(4-nitro)phenyl-2-(N-(3-(4,4,-diphenylpiperidin-1-yl)propyl)amino)methylpyridine, hydrochloride hydrate], the “pKi alpha-2 2c” value is 6.79.

For the compound `CCC1=C(C(N)=O)C(c2ccc([N+](=O)[O-])cc2)C(C(=O)NC2CCN(CCc3c[nH]c4ccccc34)CC2)=CN1CC` (stereo not shown) [Example 122, 5-Carboxamido-1,4-dihydro-3-(N-{1-[2-(3-indolyl)ethyl]piperidin-4-yl}) carboxamido-1,6-diethyl-4-(4-nitrophenyl)pyridine], the “pKi alpha-2 2c” value came out at 6.53.

Take `COC(=O)C1=C(C)NC2=C(C(=O)N(CCCN3CCC(c4ccccc4)(c4ccccc4)CC3)C2)C1c1ccc([N+](=O)[O-])cc1.Cl.O` (stereo not shown) [Example 91, 1,4,7,7-Tetrahydro-3-methoxycarbonyl-6-methyl-5-oxo-4-(4-nitrophenyl)-6-(3-(4,4-diphenylpiperidin-1-yl)) propylpyrrolo[3,4-b]pyridine, hydrochloride hydrate]: the “pKi alpha-2 2c” value was 6.31.

Still in this assay, the particulars now being: [3H]rauwolscine, human α2C receptor, LM(tk−) cells; read-out: pKi alpha-2 2c (converted).
On to `CCC1=C(C(N)=O)C(c2ccc([N+](=O)[O-])cc2)C(C(=O)NCCCN2CCN(c3ccccc3)CC2)=C(CC)N1` (stereo not shown) [Example 104, 5-Carboxamido-2,6-diethyl-1,4-dihydro-4-(4-nitrophenyl)-3-{N-[3-(4-phenylpiperazin-1-yl)propyl]}carboxamido-pyridine hydrochloride hydrate], for which the Ki is 15.8 nM.
